Results as given in patent publication US7790742B2, “Substituted 4-phenyltetrahydroisoquinolines, pharmaceutical compositions thereof, methods for their preparation and therapeutic use” (Sanofi-Aventis Deutschland GmbH, priority 2004, dated 2010).

Legend:
[1] = target: T1, NHE3 (Homo sapiens, UniProt P48764); experiment: Determination of the NHE-inhibitory effect (recovery of intracellular pH after acidification, BCECF); format: cell-based; conditions: BCECF fluorescence, NHE subtype not given
T1 construct: host or cells: cells, not specified
T1 sequence (P48764 26-834): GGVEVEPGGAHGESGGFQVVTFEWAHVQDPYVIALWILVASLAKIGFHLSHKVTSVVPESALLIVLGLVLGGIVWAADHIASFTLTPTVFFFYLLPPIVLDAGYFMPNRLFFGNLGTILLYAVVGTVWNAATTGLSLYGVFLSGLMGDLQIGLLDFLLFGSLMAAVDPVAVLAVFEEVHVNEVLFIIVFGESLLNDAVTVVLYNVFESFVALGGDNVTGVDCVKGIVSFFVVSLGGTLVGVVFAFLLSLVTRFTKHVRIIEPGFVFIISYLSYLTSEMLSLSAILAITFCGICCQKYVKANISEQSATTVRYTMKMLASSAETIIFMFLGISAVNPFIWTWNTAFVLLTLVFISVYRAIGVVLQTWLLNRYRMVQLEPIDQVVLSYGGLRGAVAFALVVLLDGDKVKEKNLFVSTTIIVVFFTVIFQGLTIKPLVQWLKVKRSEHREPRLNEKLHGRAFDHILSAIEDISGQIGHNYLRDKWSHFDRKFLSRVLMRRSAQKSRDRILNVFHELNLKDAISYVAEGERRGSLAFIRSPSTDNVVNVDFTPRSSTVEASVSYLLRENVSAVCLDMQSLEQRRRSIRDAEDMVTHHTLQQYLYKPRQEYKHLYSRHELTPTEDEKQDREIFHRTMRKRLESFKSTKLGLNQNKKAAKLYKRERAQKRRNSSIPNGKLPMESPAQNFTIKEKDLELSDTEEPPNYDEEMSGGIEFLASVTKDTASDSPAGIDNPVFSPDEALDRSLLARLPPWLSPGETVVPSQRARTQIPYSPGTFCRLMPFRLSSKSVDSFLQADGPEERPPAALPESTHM
Method: [drawing 82] was obtained in analogy to the method indicated in Example 16 from 6,8-dichloro-2-methyl-4(R)-[2N-(2-ethoxy-3,4-dioxocyclobuten-1-yl)amino]-phenyl-1,2,3,4-tetrahydroisoquinoline (Example 6) and methylamine. Crystalline solid, m.p. 265° C. Pharmacological Data: Assay: Determination of the NHE-Inhibitory Effect
In this assay, the recovery of the intracellular pH (pHj) after an acidification which occurs even under bicarbonate-free conditions with functional NHE was determined. To this end, the pHj was determined using the pH-sensitive fluorescent dye BCECF (calbiochem, the precursor BCECF-AM was employed). The cells were initially loaded with BCECF. The BCECF fluorescence was determined in a ratio fluorescence spectrometer (Photon Technology International, South Brunswick, N.J., USA) with excitation wavelengths of 505 and 440 nm and an emission wavelength of 535 nm and converted into the pHj using calibration plots. The cells had been incubated in NH4Cl buffer (pH 7.4) for the BCECF loading (NH4Cl buffer: 115 mM NaCl, 20 mM NH4Cl, 5 mM KCl, 1 mM CaCl2, 1 mM MgSO4, 20 mM Hepes, 5 mM glucose, 1 mg/ml BSA; a pH of 7.4 was adjusted with 1 M NaOH). The intracellular acidification was induced by adding 975 μl of an NH4Cl-free buffer (see below) to 25 μl aliquots of the cells incubated in NH4Cl buffer. The subsequent rate of pH recovery was recorded for two minutes with NHE1, five minutes with NHE2 and three minutes with NHE3. To calculate the inhibitory power of the tested substances, the cells were initially investigated in buffers with which there was complete or absolutely no pH recovery. For complete pH recovery (100%), the cells were incubated in Na^+-containing buffer (133.8 mM NaCl, 4.7 mM KCl, 1.25 mM CaCl2, 1.25 mM MgCl2, 0.97 mM Na2HPO4, 0.23 mM NaH2PO4, 5 mM Hepes, 5 mM glucose, a pH of 7.0 was adjusted with 1 M NaOH). To determine the 0% value, the cells were incubated in an Na^+-free buffer (133.8 mM choline chloride, 4.7 mM KCl, 1.25 mM CaCl2, 1.25 mM MgCl2, 0.97 mM K2HPO4, 0.23 mM KH2PO4, 5 mM Hepes, 5 mM glucose, a pH of 7.0 was adjusted with 1 M NaOH). The substances to be tested were made up in the Na^+-containing buffer. The recovery of the intracellular pH at each tested concentration of a substance was expressed as a percentage of the maximum recovery. The IC50 of the respective substance for the individual NHE subtypes was calculated from the percentages of pH recovery using the Sigma Plot program.

| IC50 [1] | melting point | SMILES |
| --- | --- | --- |
| 1150 nM | 275 to 280 °C | CCN(CC)c1c(Nc2ccc(C3CN(C)Cc4c(Cl)cc(Cl)cc43)cc2)c(=O)c1=O (stereo not drawn) [Example 19, 6,8-dichloro-2-methyl-4-[4N-(2-diethylamino-3,4-dioxocyclobuten-1-yl)amino]phenyl-1,2,3,4-tetrahydroisoquinoline] |
| 2490 nM |  | CCCN(CCC)c1c(Nc2ccc(C3CN(C)Cc4c(Cl)cc(Cl)cc43)cc2)c(=O)c1=O (stereo not drawn) [Example 24, 6,8-dichloro-2-methyl-4-[4N-(2-dipropylamino-3,4-dioxocyclobuten-1-yl)amino]phenyl-1,2,3,4-tetrahydroisoquinoline] |
| 7140 nM | 134 to 144 °C | CCCN(CC1CC1)c1c(Nc2ccc(C3CN(C)Cc4c(Cl)cc(Cl)cc43)cc2)c(=O)c1=O (stereo not drawn) [Example 29, 6,8-dichloro-2-methyl-4-[4N-(2-(N-cyclopropylmethyl-N-propylamino)-3,4-dioxocyclobuten-1-yl)amino]phenyl-1,2,3,4-tetrahydro-isoquinoline] |
| 680 nM | 160 to 190 °C | CCN(c1c(Nc2ccc([C@@H]3CN(C)Cc4c(Cl)cc(Cl)cc43)cc2)c(=O)c1=O)C(C)C [Example 32] |
| 260 nM | 208 to 214 °C | CN1Cc2c(Cl)cc(Cl)cc2C(c2ccc(Nc3c(N(C)C)c(=O)c3=O)cc2)C1 (stereo not drawn) [Example 18, 6,8-dichloro-2-methyl-4-[4N-(2-dimethylamino-3,4-dioxocyclobuten-1-yl)amino]phenyl-1,2,3,4-tetrahydroisoquinoline] |
| 2810 nM | > 310 °C | CC(C)CN(C)c1c(Nc2ccc(C3CN(C)Cc4c(Cl)cc(Cl)cc43)cc2)c(=O)c1=O (stereo not drawn) [Example 25, 6,8-dichloro-2-methyl-4-[4N-(2-(N-isobutyl-N-methylamino)-3,4-dioxocyclobuten-1-yl)amino]phenyl-1,2,3,4-tetrahydroisoquinoline] |
| 850 nM | 236 to 240 °C | CCCN(C)c1c(Nc2ccccc2[C@@H]2CN(C)Cc3c(Cl)cc(Cl)cc32)c(=O)c1=O [Example 37] |
| 210 nM | 220 to 225 °C | CCN(CC)c1c(Nc2ccc([C@@H]3CN(C)Cc4c(Cl)cc(Cl)cc43)cc2)c(=O)c1=O [Example 27, 6,8-dichloro-2-methyl-4(S)-[4N-(2-diethylamino-3,4-dioxocyclobuten-1-yl)amino]phenyl-1,2,3,4-tetrahydroisoquinoline] |
| 130 nM | 135 to 150 °C | CC(C)N(C)c1c(Nc2cccc([C@@H]3CN(C)Cc4c(Cl)cc(Cl)cc43)c2)c(=O)c1=O [Example 31] |
| 8000 nM | 158 to 162 °C | CN1Cc2c(Cl)cc(Cl)cc2C(c2ccc(Nc3c(N(C)Cc4ccccc4)c(=O)c3=O)cc2)C1 (stereo not drawn) [Example 38] |
| 240 nM | 190 to 194 °C | CCCN(CCC)c1c(Nc2ccccc2[C@@H]2CN(C)Cc3c(Cl)cc(Cl)cc32)c(=O)c1=O [Example 40] |
| 31 nM | 135 to 140 °C | CCCN(C)c1c(Nc2cccc([C@@H]3CN(C)Cc4c(Cl)cc(Cl)cc43)c2)c(=O)c1=O [Example 33] |
| 230 nM | 264 to 270 °C | CN1Cc2c(Cl)cc(Cl)cc2[C@H](c2ccc(Nc3c(N4CCCC4)c(=O)c3=O)cc2)C1 [Example 36, 6,8-dichloro-2-methyl-4(S)-[4N-(2-N-pyrrolidino-3,4-dioxocyclobuten-1-yl)amino]phenyl-1,2,3,4-tetrahydroisoquinoline] |
| 1700 nM | 206 to 210 °C | COCCN(C)c1c(Nc2ccc(C3CN(C)Cc4c(Cl)cc(Cl)cc43)cc2)c(=O)c1=O (stereo not drawn) [Example 26] |
| 260 nM | 165 to 175 °C (dec.) | CC(C)N(C)c1c(Nc2ccc([C@@H]3CN(C)Cc4c(Cl)cc(Cl)cc43)cc2)c(=O)c1=O [Example 28, 6,8-dichloro-2-methyl-4(S)-[4N-(2-(N-isopropyl-N-methylamino)-3,4-dioxocylcobuten-1-yl)amino]phenyl-1,2,3,4-tetrahydroisoquinoline] |
| 150 nM | 210 to 214 °C | CC(C)N(C)c1c(Nc2ccccc2[C@@H]2CN(C)Cc3c(Cl)cc(Cl)cc32)c(=O)c1=O [Example 42] |
| 52 nM | 138 to 143 °C | CN1Cc2c(Cl)cc(Cl)cc2[C@H](c2cccc(Nc3c(N4CCCC4)c(=O)c3=O)c2)C1 [Example 34, 6,8-dichloro-2-methyl-4(S)-[3N-(2-N-pyrrolidino-3,4-dioxocyclobuten-1-yl)amino]phenyl-1,2,3,4-tetrahydroisoquinoline] |
| 140 nM | 125 to 135 °C | CCN(CC)c1c(Nc2cccc([C@@H]3CN(C)Cc4c(Cl)cc(Cl)cc43)c2)c(=O)c1=O [Example 30] |
| 1520 nM | 246 to 250 °C | CCN(CC)c1c(Nc2ccccc2[C@@H]2CN(C)Cc3c(Cl)cc(Cl)cc32)c(=O)c1=O [Example 39, 6,8-dichloro-2-methyl-4(R)-[2N-(2-diethylamino-3,4-dioxocyclobuten-1-yl)amino]phenyl-1,2,3,4-tetrahydroisoquinoline] |
| 110 nM | 220 to 224 °C | CN1Cc2c(Cl)cc(Cl)cc2[C@H](c2ccccc2Nc2c(N3CCCC3)c(=O)c2=O)C1 [Example 41, 6,8-dichloro-2-methyl-4(R)-[2N-(2-N-pyrrolidino-3,4-dioxocyclobuten-1-yl)amino]phenyl-1,2,3,4-tetrahydroisoquinoline] |
